Assay results as given in patent US20260209214A1, “LSD1 MODULATORS” (RECURSION PHARMACEUTICALS, INC., priority 2022, published 2026).

Target: Recombinant human LSD1 (Homo sapiens, UniProt O60341)
Experiment: LSD1 inhibition assay (HTRF LSD1 Histone H3K4 mono-demethylation assay, me1->me0)
Format: biochemical
Details: 20 nM recombinant human LSD1, 95 nM H3K4(me1) biotinylated peptide, 15 min preincubation, 60 min at 25° C., read-out: LSD1 inhibition IC50 (nM range)
In short: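 Recombinant human LSD1 (20 nM) pre-incubated 15 min with 10 semi-log compound doses, then 95 nM biotinylated H3K4me1 peptide for 60 min at 25 °C in pH 8.5 Tris/NaCl buffer with 10 μM FAD, 1 mM DTT. HTRF me0-antibody read after 90 min; IC50 from 4-parameter fit.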

Row | Compound | IC50
1 | N#Cc1ccc(-c2cccc(CN3CC[C@@H]4NCC[C@@H]43)c2C2CC2)cc1F [Example 273, 3'-{[(3aS,6aS)-octahydropyrrolo[3,2-b]pyrrol-1-yl]methyl}-2'-cyclopropyl-3-fluoro-[1,1'-biphenyl]-4-carbonitrile] | 25 to 100 nM
2 | N#Cc1ccc(-c2cccc(CN3C4CNCC3C4)c2C2CC2)cc1F [Example 274, 2'-cyclopropyl-3'-({3,6-diazabicyclo[3.1.1]heptan-6-yl}methyl)-3-fluoro-[1,1'-biphenyl]-4-carbonitrile] | 100 to 1000 nM
3 | CN1CCC2CN(Cc3cccc(-c4ccc(C#N)c(F)c4)c3C3CC3)CC21 (stereo not shown) [Example 276, 2'-cyclopropyl-3-fluoro-3'-({1-methyl-octahydropyrrolo[2,3-c]pyrrol-5-yl}methyl)-[1,1'-biphenyl]-4-carbonitrile] | 100 to 1000 nM
4 | CN1CC2CN(Cc3cccc(-c4ccc(C#N)c(F)c4)c3C3CC3)CC21 (stereo not shown) [Example 277, 2'-cyclopropyl-3-fluoro-3'-({6-methyl-3,6-diazabicyclo[3.2.0]heptan-3-yl}methyl)-[1,1'-biphenyl]-4-carbonitrile] | 25 to 100 nM
5 | CC1(C)CN(Cc2cccc(-c3ccc(C#N)c(F)c3)c2C2CC2)CC1N (stereo not shown) [Example 278, 3'-[(4-amino-3,3-dimethylpyrrolidin-1-yl)methyl]-2'-cyclopropyl-3-fluoro-[1,1'-biphenyl]-4-carbonitrile] | 100 to 1000 nM
6 | N#Cc1ccc(-c2cccc(Cn3ncc4c3CNCC4)c2-c2cncs2)cc1F [Example 280, 3-fluoro-3'-({1H,4H,5H,6H,7H-pyrazolo[3,4-c]pyridin-1-yl}methyl)-2'-(1,3-thiazol-5-yl)-[1,1'-biphenyl]-4-carbonitrile] | 100 to 1000 nM
7 | N#Cc1ccc(-c2cccc(CN3CCCCC34CCCNC4)c2Cl)cc1F (stereo not shown) [Example 281, 2'-chloro-3'-({1,8-diazaspiro[5.5]undecan-1-yl}methyl)-3-fluoro-[1,1'-biphenyl]-4-carbonitrile] | > 1000 nM
8 | N#Cc1ccc(-c2cccc(CN3CC4CCC3CN4)c2Cl)cc1F (stereo not shown) [Example 283, 2'-chloro-3'-({2,5-diazabicyclo[2.2.2]octan-2-yl}methyl)-3-fluoro-[1,1'-biphenyl]-4-carbonitrile] | 100 to 1000 nM
9 | N#Cc1ccc(-c2cccc(CN3CC4CNC(C4)C3)c2Cl)cc1F (stereo not shown) [Example 284, 2'-chloro-3'-({3,6-diazabicyclo[3.2.1]octan-3-yl}methyl)-3-fluoro-[1,1'-biphenyl]-4-carbonitrile] | 100 to 1000 nM
10 | N#Cc1ccc(-c2cccc(CN3C[C@H](N)C[C@H](F)C3)c2Cl)cc1F [Example 285, 3'-{[(3R,5S)-3-amino-5-fluoropiperidin-1-yl]methyl}-2'-chloro-3-fluoro-[1,1'-biphenyl]-4-carbonitrile] | 100 to 1000 nM
11 | CC1(N)CCCN(Cc2cccc(-c3ccc(C#N)c(F)c3)c2Cl)C1 (stereo not shown) [Example 286, 3'-[(3-amino-3-methylpiperidin-1-yl)methyl]-2'-chloro-3-fluoro-[1,1'-biphenyl]-4-carbonitrile] | > 1000 nM
12 | N#Cc1ccc(-c2cccc(CN3CC4CC4(N)C3)c2Cl)cc1F (stereo not shown) [Example 287, 3'-({1-amino-3-azabicyclo[3.1.0]hexan-3-yl}methyl)-2'-chloro-3-fluoro-[1,1'-biphenyl]-4-carbonitrile] | > 1000 nM
13 | N#Cc1ccc(-c2cccc(CN3CC4(CCNCC4)C3)c2Cl)cc1F [Example 288, 2'-chloro-3'-({2,7-diazaspiro[3.5]nonan-2-yl}methyl)-3-fluoro-[1,1'-biphenyl]-4-carbonitrile] | 100 to 1000 nM
14 | CN1CCC12CCN(Cc1c(F)ccc(-c3ccc(C#N)c(F)c3)c1Cl)C2 (stereo not shown) [Example 289, 2'-chloro-3,4'-difluoro-3'-({1-methyl-1,6-diazaspiro[3.4]octan-6-yl}methyl)-[1,1'-biphenyl]-4-carbonitrile] | 100 to 1000 nM
15 | CN1CCC12CCN(Cc1c(F)ccc(-c3ccc(C#N)c(F)c3)c1F)C2 (stereo not shown) [Example 290, 2', 3,4'-trifluoro-3'-({1-methyl-1,6-diazaspiro[3.4]octan-6-yl}methyl)-[1,1'-biphenyl]-4-carbonitrile] | > 1000 nM
16 | N#Cc1ccc(-c2ccc(F)c(CN3C[C@@H]4[C@H](N)[C@@H]4C3)c2Cl)cc1F [Example 291, 3'-{[(1R,5S,6S)-6-amino-3-azabicyclo[3.1.0]hexan-3-yl]methyl}-2'-chloro-3,4'-difluoro-[1,1'-biphenyl]-4-carbonitrile] | 100 to 1000 nM
17 | N#Cc1ccc(-c2cccc(CN3CC4(CCN4)C3)c2Cl)cc1F [Example 292, 2'-chloro-3'-({1,6-diazaspiro[3.3]heptan-6-yl}methyl)-3-fluoro-[1,1'-biphenyl]-4-carbonitrile] | > 1000 nM

Row | Compound | IC50
18 | Cc1cc(CN2C[C@H]3C[C@@H]2CN3)c(C)c(-c2ccc(C#N)c(F)c2)c1 [Example 293, 3'-{[(1R,4R)-2,5-diazabicyclo[2.2.1]heptan-2-yl]methyl}-3-fluoro-2',5'-dimethyl-[1,1'-biphenyl]-4-carbonitrile] | 100 to 1000 nM
19 | N#Cc1ccc(-c2cc(CN3C[C@]4(N)CC[C@H]3C4)cc(N3CCCC3)c2)cc1F [Example 294, 4-[3-[[(1S,4S)-4-amino-2-azabicyclo[2.2.1]heptan-2-yl]methyl]-5-pyrrolidin-1-yl-phenyl]-2-fluoro-benzonitrile] | 100 to 1000 nM
20 | CC(C)N(C)c1ccc(CN2CCN(C)CC2)cc1-c1ccc(C#N)c(F)c1 [Example 295, 3-fluoro-2'-[methyl(propan-2-yl)amino]-5'-[(4-methylpiperazin-1-yl)methyl]-[1,1'-biphenyl]-4-carbonitrile] | > 1000 nM
21 | CN1CCN(Cc2ccc(N3CCC3)c(-c3ccc(C#N)c(F)c3)c2)CC1 [Example 296, 2'-(azetidin-1-yl)-3-fluoro-5'-[(4-methylpiperazin-1-yl)methyl]-[1,1'-biphenyl]-4-carbonitrile] | > 1000 nM
22 | Cc1cc(CN2C[C@@H]3C[C@H]2CN3C(C)C)c(Cl)c(-c2ccc(C#N)c(F)c2)c1 [Example 297, 2'-chloro-3-fluoro-5'-methyl-3'-{[(1S,4S)-5-(propan-2-yl)-2,5-diazabicyclo[2.2.1]heptan-2-yl]methyl}-[1,1'-biphenyl]-4-carbonitrile] | 100 to 1000 nM
23 | Cc1cc(CNCC2(C)CCN(C)C2)c(Cl)c(-c2ccc(C#N)c(F)c2)c1 (stereo not shown) [Example 298, 2'-chloro-3'-({[(1,3-dimethylpyrrolidin-3-yl)methyl]amino}methyl)-3-fluoro-5'-methyl-[1,1'-biphenyl]-4-carbonitrile] | 100 to 1000 nM
24 | Cc1cc(CN2C[C@@H]3C[C@H]2CN3)c(Cl)c(-c2ccc(C#N)c(F)c2)c1 [Example 299, 2′-chloro-3'-{[(1S,4S)-2,5-diazabicyclo[2.2.1]heptan-2-yl]methyl}-3-fluoro-5'-methyl-[1,1'-biphenyl]-4-carbonitrile] | 25 to 100 nM
25 | C[C@]1(N)CCN(Cc2cccc(-c3ccc(C#N)c(F)c3)c2-c2ccns2)C1 [Example 302, 3'-{[(3S)-3-amino-3-methylpyrrolidin-1-yl]methyl}-3-fluoro-2'-(1,2-thiazol-5-yl)-[1,1'-biphenyl]-4-carbonitrile] | < 10 nM
26 | N#Cc1ccc(-c2cc(CN3C[C@]4(N)CC[C@H]3C4)ccc2C2CC2)cc1F [Example 308, 5'-{[(1S,4S)-4-amino-2-azabicyclo[2.2.1]heptan-2-yl]methyl}-2'-cyclopropyl-3-fluoro-[1,1'-biphenyl]-4-carbonitrile] | 25 to 100 nM
27 | N#Cc1ccc(-c2cccc(CN3[C@@H]4CC[C@H]3C[C@H](N)C4)c2C2CC2)cc1F [Example 321, 3'-{[(1R,3S,5S)-3-amino-8-azabicyclo[3.2.1]octan-8-yl]methyl}-2'-cyclopropyl-3-fluoro-[1,1'-biphenyl]-4-carbonitrile] | 10 to 25 nM
28 | N#Cc1ccc(-c2cccc(CN3C[C@H]4C[C@@H]3CCN4)c2C2CC2)cc1F [Example 322, 2'-cyclopropyl-3'-{[(1R,5S)-2,6-diazabicyclo[3.2.1]octan-6-yl]methyl}-3-fluoro-[1,1'-biphenyl]-4-carbonitrile] | 25 to 100 nM
29 | N#Cc1ccc(-c2cccc(CN3CC4CC(C3)N4)c2C2CC2)cc1F [Example 323, 4-[2-cyclopropyl-3-(3,6-diazabicyclo[3.1.1]heptan-3-ylmethyl)phenyl]-2-fluoro-benzonitrile; (2R,3R)-2,3-dihydroxybutanedioic acid] | 10 to 25 nM
30 | N#Cc1ccc(-c2cccc(CN3C[C@@H]4CNC[C@H]4C3)c2-c2cncs2)cc1F [Example 324, 3'-{[(3aS,6aS)-octahydropyrrolo[3,4-c]pyrrol-2-yl]methyl}-3-fluoro-2'-(1,3-thiazol-5-yl)-[1,1'-biphenyl]-4-carbonitrile] | 10 to 25 nM
31 | N#Cc1ccc(-c2cccc(CN3CCC4(CCNC4)C3)c2-c2cnco2)cc1 (stereo not shown) [Example 325, 3'-({2,7-diazaspiro[4.4]nonan-2-yl}methyl)-2'-(1,3-oxazol-5-yl)-[1,1'-biphenyl]-4-carbonitrile] | 10 to 25 nM
32 | N#Cc1ccc(-c2cccc(CN3C[C@H](N)C[C@H](C(F)(F)F)C3)c2Cl)cc1F [Example 326, 3'-{[(3R,5S)-3-amino-5-(trifluoromethyl)piperidin-1-yl]methyl}-2'-chloro-3-fluoro-[1,1'-biphenyl]-4-carbonitrile] | > 1000 nM
33 | N#Cc1ccc(-c2cccc(CN3CCCC34CCCNC4)c2Cl)cc1F (stereo not shown) [Example 327, 2'-chloro-3'-({1,7-diazaspiro[4.5]decan-1-yl}methyl)-3-fluoro-[1,1'-biphenyl]-4-carbonitrile] | > 1000 nM
34 | N#Cc1ccc(-c2cccc(CN3CC4(N)CCC3CC4)c2Cl)cc1F [Example 328, 3'-({4-amino-2-azabicyclo[2.2.2]octan-2-yl}methyl)-2'-chloro-3-fluoro-[1,1'-biphenyl]-4-carbonitrile] | 100 to 1000 nM
